From US20080038333A1, “Formulations For Poorly Soluble Drugs” (Bio-Dar Ltd., priority 2004, published 2008)

Assay: Solvent evaporation of nanoemulsion, crystal formation (electron microscopy)
Assay type: physicochemical
Conditions: evaporation performed after the beads formation, FIG. 4
Description: The organic solvent (toluene) was evaporated with Rotavapor (R-114 BUCHI) from the emulsion to form a dispersion of lipophilic drug in water. The organic solvent evaporation was performed in four steps, water was added up to the initial weight after each step.

- drug particle state after solvent evaporation: remain as nanoparticles
SMILES: CCC(C)(C)C(=O)O[C@H]1C[C@@H](C)C=C2C=C[C@H](C)[C@H](CC[C@@H]3C[C@@H](O)CC(=O)O3)[C@H]21 [simvastatine]
